# Reference: patent publication US20210353579A1, “HIGH PENETRATION COMPOSITIONS AND USES THEREOF” (Techfields Pharma Co., Ltd., priority 2006, published 2021)
# Where two headings read alike, the source gives them in different places.
# Assays:
# Chinese white rabbits [1] = assay: Wound healing, scar area; format: in vivo, rabbit; settings: 5% aqueous solution applied to the nearby area of wounds, vs control rabbits
# From the text: 25 Chinese white rabbits were divided into 5 groups and hairs on the back of rabbits were removed (5×5 cm^2).
# [2] = Plasma levels after transdermal administration to hairless mice; format: in vivo; settings: mouse, in vivo
# Procedure: Tested compounds (20% solution or suspension in 1 mL isopropanol) are administered transdermally to the skin of intact hairless mice. The plasma levels of the parent compounds are determined by HPLC.
# mice = assay: Analgesic activity, acetic acid writhing; format: in vivo; settings: 100 mg/kg transdermally, 30 min before acetic acid
# Procedure: The prodrug compounds are administered either transdermally or orally. The parent compounds are administered orally. The number of writhing that occurred when mice are administered the acetic acid solution are counted, and the rate of inhibition based on the control group which was not pretreated with any test compounds is calculated. […] The A group is the control group.
# rats = assay: Antipyretic activity, E. coli suspension as pyrogen; format: in vivo; settings: 100 mg/kg transdermally; in °C (unit assumed)
# Procedure: Rats are administered with sterilized E. coli suspension as a pyrogen. Each group of rats are administered with a prodrug compounds or parent compounds at a dosage specified below. The prodrug compounds are administered either orally or transdermally. The parent compounds are administered orally.
# Chinese white rabbits [3] = assay: Malassezia-induced lesions similar to psoriasis; format: in vivo, rabbit; settings: 5% aqueous solution twice per day, 10 days after application
# From the text: Heavy suspensions of Malassezia [Rosenberg, E. W., et al., Mycopathologia, 72, 147-154 (1980)] were applied to the shaved skin on the backs of the Chinese white rabbits (n=4×6) twice (at 7 am and 7 pm) per day for 2 weeks, lesions similar to psoriasis resulted.
# human skin tissue = settings: pH 7.4
# 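Wherever LD50 of HPP is given: acute toxicity in rats expressed as LD50, determined for both prodrugs and their parent compounds.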
smiles,measurement,setting,value
CC(C)Cc1ccc(C(C)C(=O)OCC2CCCNC2)cc1.Cl (centres unmarked) [3-piperidinemethyl 2-(ρ-isobutylphenyl) propionate.HCl],average scar area,Chinese white rabbits [1],only a third of that of the control rabbits
"CC(=O)O.CCc1cccc2c3c([nH]c12)C(CC)(CC(=O)OCCN(CC)CC)OCC3 (centres unmarked) [diethylaminoethyl 1,8-diethyl-1,3,4,9-tetrahydropyrano-[3,4-b]indole-1-acetate.AcOH]",Peak plasma concentration of parent compound after prodrug compound,[2],20 mg/L
same,"t, time to peak plasma level of parent compound after prodrug compound",[2],50 min
same,% (rate of writhing inhibition),mice,60%
same,No. of Writhing,mice,14.0
same,"body temperature, t = 0 min",rats,37.23 ± 0.06
same,"body temperature, t = 90 min",rats,36.65 ± 0.06
same,"body temperature, t = 180 min",rats,36.58 ± 0.08
same,"body temperature, t = 270 min",rats,36.60 ± 0.07
same,lesions similar to psoriasis,Chinese white rabbits [3],the lesions were resolved
same,"In vitro penetration rate (apparent flux), prodrug compounds",human skin tissue,1300 μg/cm^2/h
same,LD50 of HPP,rat; rats,600 mg/kg
"CCc1cccc2c3c([nH]c12)C(CC)(CC(=O)OCCN(CC)CC)OCC3.Cl (centres unmarked) [diethylaminoethyl 1,8-diethyl-1,3,4,9-tetrahydropyrano-[3,4-b]indole-1-acetate.HCl]",average scar area,Chinese white rabbits [1],only a third of that of the control rabbits
CC(=O)O.CCN(CC)CCOC(=O)COC(=O)Cc1c(C)n(C(=O)c2ccc(Cl)cc2)c2ccc(OC)cc12 [diethylaminoethyl 1-(4-chlorobenzoyl-5-methoxy-2-methyl-1H-indole-3-acetoxyacetate.AcOH],Peak plasma concentration of parent compound after prodrug compound,[2],20 mg/L
same,"t, time to peak plasma level of parent compound after prodrug compound",[2],50 min
same,% (rate of writhing inhibition),mice,55%
same,No. of Writhing,mice,15.6
same,"body temperature, t = 0 min",rats,37.21 ± 0.06
same,"body temperature, t = 90 min",rats,36.75 ± 0.05
same,"body temperature, t = 180 min",rats,36.62 ± 0.08
same,"body temperature, t = 270 min",rats,36.58 ± 0.07
same,lesions similar to psoriasis,Chinese white rabbits [3],the lesions were resolved
same,"In vitro penetration rate (apparent flux), prodrug compounds",human skin tissue,1200 μg/cm^2/h
same,LD50 of HPP,"rat; rat, in vivo",1200 mg/kg
CCN(CC)CCOC(=O)COC(=O)Cc1c(C)n(C(=O)c2ccc(Cl)cc2)c2ccc(OC)cc12.Cl [diethylaminoethyl 1-(4-chlorobenzoyl-5-methoxy-2-methyl-1H-indole-3-acetoxyacetate.HCl],average scar area,Chinese white rabbits [1],only a third of that of the control rabbits
CCN(CC)CCOC(=O)Cc1ccc(C(=O)c2ccc(C)cc2)n1C.Cl [diethylaminoethyl 1-methyl-5-(4-methylbenzoyl)-1H-pyrrole-2-acetate.HCl],average scar area,Chinese white rabbits [1],only a third of that of the control rabbits
CC(=O)O.CCN(CC)CCOC(=O)Cc1cccc(C(=O)c2ccc(Br)cc2)c1N [diethylaminoethyl 2-amino-3-(4-bromo-benzoyl)benzeneacetate.AcOH],Peak plasma concentration of parent compound after prodrug compound,[2],20 mg/L
same,"t, time to peak plasma level of parent compound after prodrug compound",[2],50 min
same,% (rate of writhing inhibition),mice,62%
same,No. of Writhing,mice,13.2
same,"body temperature, t = 0 min",rats,37.25 ± 0.06
same,"body temperature, t = 90 min",rats,36.71 ± 0.05
same,"body temperature, t = 180 min",rats,36.65 ± 0.08
same,"body temperature, t = 270 min",rats,36.64 ± 0.07
same,lesions similar to psoriasis,Chinese white rabbits [3],the lesions were resolved
same,"In vitro penetration rate (apparent flux), prodrug compounds",human skin tissue,1100 μg/cm^2/h
same,LD50 of HPP,rat; rats,1600 mg/kg
CCN(CC)CCOC(=O)Cc1cccc(C(=O)c2ccc(Br)cc2)c1N.Cl [diethylaminoethyl 2-amino-3-(4-bromo-benzoyl)benzeneacetate.HCl],average scar area,Chinese white rabbits [1],only a third of that of the control rabbits
CC(=O)O.CCN(CC)CCOC(=O)Cc1cn(-c2ccccc2)nc1-c1ccc(Cl)cc1 [diethylaminoethyl 3-(4-chlorophenyl)-1-phenyl-1H-pyrazole-4-acetate.AcOH],Peak plasma concentration of parent compound after prodrug compound,[2],20 mg/L
same,"t, time to peak plasma level of parent compound after prodrug compound",[2],50 min
same,% (rate of writhing inhibition),mice,57%
same,No. of Writhing,mice,15.2
same,"body temperature, t = 0 min",rats,37.22 ± 0.07
same,"body temperature, t = 90 min",rats,36.82 ± 0.06
same,"body temperature, t = 180 min",rats,36.80 ± 0.05
same,"body temperature, t = 270 min",rats,36.77 ± 0.08
same,lesions similar to psoriasis,Chinese white rabbits [3],the lesions were resolved
same,LD50 of HPP,rat; rats,1200 mg/kg
CCN(CC)CCOC(=O)Cc1cn(-c2ccccc2)nc1-c1ccc(Cl)cc1.Cl [diethylaminoethyl 3-(4-chlorophenyl)-1-phenyl-1H-pyrazole-4-acetate.HCl],average scar area,Chinese white rabbits [1],only a third of that of the control rabbits
C=CCOc1ccc(CC(=O)OCCN(CC)CC)cc1Cl.CC(=O)O [diethylaminoethyl 3-chloro-4-(2-propenyloxy)benzeneacetate.AcOH],Peak plasma concentration of parent compound after prodrug compound,[2],20 mg/L
same,"t, time to peak plasma level of parent compound after prodrug compound",[2],50 min
same,% (rate of writhing inhibition),mice,55%
same,No. of Writhing,mice,15.7
same,"body temperature, t = 0 min",rats,37.23 ± 0.07
same,"body temperature, t = 90 min",rats,36.80 ± 0.06
same,"body temperature, t = 180 min",rats,36.70 ± 0.05
same,"body temperature, t = 270 min",rats,36.67 ± 0.08
same,lesions similar to psoriasis,Chinese white rabbits [3],the lesions were resolved
same,"In vitro penetration rate (apparent flux), prodrug compounds",human skin tissue,1000 μg/cm^2/h
same,LD50 of HPP,rat; rats,3000 mg/kg
C=CCOc1ccc(CC(=O)OCCN(CC)CC)cc1Cl.Cl [diethylaminoethyl 3-chloro-4-(2-propenyloxy)benzeneacetate.HCl],average scar area,Chinese white rabbits [1],only a third of that of the control rabbits
CC(=O)O.CCN(CC)CCOC(=O)Cc1sc(-c2ccccc2)nc1-c1ccc(Cl)cc1 [diethylaminoethyl 4-(4-chlorophenyl)-2-phenyl-5-thiazoleacetate.AcOH],Peak plasma concentration of parent compound after prodrug compound,[2],20 mg/L
same,"t, time to peak plasma level of parent compound after prodrug compound",[2],50 min
same,% (rate of writhing inhibition),mice,54%
same,No. of Writhing,mice,16.1
same,"body temperature, t = 0 min",rats,37.23 ± 0.06
same,"body temperature, t = 90 min",rats,36.81 ± 0.05
same,"body temperature, t = 180 min",rats,36.75 ± 0.08
same,"body temperature, t = 270 min",rats,36.71 ± 0.07
same,lesions similar to psoriasis,Chinese white rabbits [3],the lesions were resolved
same,"In vitro penetration rate (apparent flux), prodrug compounds",human skin tissue,1300 μg/cm^2/h
same,LD50 of HPP,rat; rats,1200 mg/kg
CCN(CC)CCOC(=O)Cc1sc(-c2ccccc2)nc1-c1ccc(Cl)cc1.Cl [diethylaminoethyl 4-(4-chlorophenyl)-2-phenyl-5-thiazoleacetate.HCl],average scar area,Chinese white rabbits [1],only a third of that of the control rabbits
"CCN(CC)CCOC(=O)Cc1cc(C)c(C(=O)c2ccc(Cl)cc2)n1C.Cl [diethylaminoethyl 5-(4-Chlorobenzoyl)-1,4-dimethyl-1H-pyrrole-2-acetate.HCl]",average scar area,Chinese white rabbits [1],only a third of that of the control rabbits
